Test results as given in patent publication US20060009415A1, “Corneal epithelial migration promoter” (priority 2000, published 2006).

System: corneal epithelial layer of rabbit cornea blocks
Test: Corneal epithelial migration in rabbit cornea tissue culture (method of Nishida et al.)
Format: cell-based, male Japanese white rabbits
Conditions: for Corneal Epithelial Migration Rate (%): 24 h, 37.5° C., 5% CO2, control set at 100%; for corneal epithelial migration promoting effect (in words): summary of Table 1, rabbit cornea tissue culture
Experimental: Using cornea specimen s collected from male Japanese white rabbits, the corneal epithelial migration length was used as an index in studying the cornea tissue culturing system according to the method of Nishida, et al. (J. Cell Biol., 97, 1653-1657 (1983)). Cornea blocks (6 specimens for each group) cut from rabbit cornea pieces were cultured in a culture solution (TCM-199) containing an invention compound at 37.5° C. and 5% CO2 for 24 h. After culturing, the cornea blocks were fixed in an ethanol/glacial acetic acid (95:5 by volume) mixture solution, followed by embedding with paraffin to form slices. After removal of the paraffin, the slices were subjected to hematoxylin-eosin staining, and the length of migration of the corneal epithelial layer was observed using a microscope. As a control, culturing was also performed using a culture solution not containing an invention compound.

[1] = compound 10 μM in culture solution (TCM-199)
[2] = compound 100 μM in culture solution (TCM-199)

| SMILES | Corneal Epithelial Migration Rate (%) [1] [%] | corneal epithelial migration promoting effect (in words) | Corneal Epithelial Migration Rate (%) [2] [%] |
| --- | --- | --- | --- |
| Nc1ncnc2c1ncn2[C@@H]1O[C@H](COP(=O)([O-])OP(=O)([O-])O)[C@@H](O)[C@H]1O.[Na+].[Na+] [ADP-Na, adenosine 5′-diphosphate disodium] | 116.1 | significant corneal epithelial migration promoting effects | – |
| Nc1ncnc2c1ncn2[C@@H]1O[C@H](COP(=O)([O-])OP(=O)([O-])OP(=O)([O-])O)[C@@H](O)[C@H]1O.[Na+].[Na+].[Na+] [ATP-Na, adenosine 5′-triphosphate trisodium] | 119.3 | significant corneal epithelial migration promoting effects | – |
| O=c1ccn([C@@H]2O[C@H](COP(=O)([O-])OP(=O)([O-])OP(=O)([O-])OP(=O)([O-])OC[C@H]3O[C@@H](n4ccc(=O)[nH]c4=O)[C@H](O)[C@@H]3O)[C@@H](O)[C@H]2O)c(=O)[nH]1.[Na+].[Na+].[Na+].[Na+] [DUTP-Na, P^1, P^4-di(uridine-5′)tetraphosphate tetrasodium] | – | significant corneal epithelial migration promoting effects | 118.9 |
| O=c1ccn([C@@H]2O[C@H](COP(=O)([O-])OP(=O)([O-])O)[C@@H](O)[C@H]2O)c(=O)[nH]1.[Na+].[Na+] [UDP-Na, uridine 5′-diphosphate di-sodium] | – | significant corneal epithelial migration promoting effects | 115.3 |
| O=c1ccn([C@@H]2O[C@H](COP(=O)([O-])OP(=O)([O-])OP(=O)([O-])O)[C@@H](O)[C@H]2O)c(=O)[nH]1.[Na+].[Na+].[Na+] [UTP-Na, uridine 5′-triphosphate trisodium] | – | significant corneal epithelial migration promoting effects | 123.1 |
